The source of these data is patent EP4692090A1 (Shanghai Fosun Pharmaceutical (Group) Co., Ltd., priority 2023, dated 2024).

Assay [1] has as its target T1, ATR kinase (Homo sapiens, UniProt Q13535).
T1 construct: purchased Eurofins 14-953
Put plainly: Inhibitory effect on ATR kinase activity (Caliper mobility shift, FAM-labeled RAD17 peptide substrate). Conditions: 1 nM ATR kinase (Eurofins), 28°C for 3 hours, maximum concentration 1 µM, 10 concentrations. The class given is biochemical. On the procedure:
Test Example 1: Inhibitory effect of the compounds of the present disclosure on ATR kinase activity
Test compounds to be tested were serially diluted with DMSO (maximum concentration 1 µM, 10 concentrations with 3-fold serial dilution) and added to the wells of a 384-well reaction plate (Corning, #4512). 1 nM ATR kinase (Eurofins, #14-953), 5 mM substrate (FAM-labeled RAD17 peptide, FAM-ASELPASQPQPFSAKKK), 5 mM ATP and the compounds with corresponding concentrations reacted in a kinase reaction solution (50 mM HEPES, pH 7.5; 0.0015% Brij-35; 10 mM MnCl2, total volume of 20 µL) at 28°C for 3 hours. The reaction was terminated by adding 30 µL of stop solution (100 mM HEPES, pH 7.5; 0.015% Brij-35; 0.2% Coating Reagent #3, PerkinElmer; 50 mM EDTA). The reaction plate was placed on a Caliper instrument (PerkinElmer) for testing. The relative inhibitory activity of each compound concentration group was calculated using the following formula: % Inhibition = (Conversion rate of the blank control group without compound added - Conversion rate of the test compound group) / (Conversion rate of the blank control group - […]). The IC50 values were calculated using GraphPad analysis and fitted. […] Table 1. Inhibitory effect (IC50) of compounds on ATR kinase activity.

The subject of assay [2] is LoVo cells. Kind of assay: LoVo cell proliferation assay (CellTiter-Glo). The class given is cell-based. To be noted: maximum concentration 10 µM, 9 concentrations. In a few lines: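 LoVo cells, 2,000 per well, were treated after overnight attachment with 9-point 3-fold dilutions from 10 µM for 5 days at 37 °C. Viability was read by CellTiter-Glo luminescence. Inhibition % was taken relative to DMSO control, and IC50 came from the concentration–inhibition curve.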
For orientation: Cellular ATP, detected with luciferase, serves as a proxy for viable cell number.

The mark [3] stands for this setting: Homo sapiens, LoVo, 120 h, LoVo cells, 2,000 cells per well, 5 days incubation, CellTiter-Glo, read-out: LoVo IC50.
The mark [4] stands for this setting: LoVo cells, 2,000 cells per well, 5 days incubation, CellTiter-Glo, read-out: LoVo IC50.

Like-named read-outs stand apart in the source and are kept apart here.

T1 sequence (Q13535 whole entry): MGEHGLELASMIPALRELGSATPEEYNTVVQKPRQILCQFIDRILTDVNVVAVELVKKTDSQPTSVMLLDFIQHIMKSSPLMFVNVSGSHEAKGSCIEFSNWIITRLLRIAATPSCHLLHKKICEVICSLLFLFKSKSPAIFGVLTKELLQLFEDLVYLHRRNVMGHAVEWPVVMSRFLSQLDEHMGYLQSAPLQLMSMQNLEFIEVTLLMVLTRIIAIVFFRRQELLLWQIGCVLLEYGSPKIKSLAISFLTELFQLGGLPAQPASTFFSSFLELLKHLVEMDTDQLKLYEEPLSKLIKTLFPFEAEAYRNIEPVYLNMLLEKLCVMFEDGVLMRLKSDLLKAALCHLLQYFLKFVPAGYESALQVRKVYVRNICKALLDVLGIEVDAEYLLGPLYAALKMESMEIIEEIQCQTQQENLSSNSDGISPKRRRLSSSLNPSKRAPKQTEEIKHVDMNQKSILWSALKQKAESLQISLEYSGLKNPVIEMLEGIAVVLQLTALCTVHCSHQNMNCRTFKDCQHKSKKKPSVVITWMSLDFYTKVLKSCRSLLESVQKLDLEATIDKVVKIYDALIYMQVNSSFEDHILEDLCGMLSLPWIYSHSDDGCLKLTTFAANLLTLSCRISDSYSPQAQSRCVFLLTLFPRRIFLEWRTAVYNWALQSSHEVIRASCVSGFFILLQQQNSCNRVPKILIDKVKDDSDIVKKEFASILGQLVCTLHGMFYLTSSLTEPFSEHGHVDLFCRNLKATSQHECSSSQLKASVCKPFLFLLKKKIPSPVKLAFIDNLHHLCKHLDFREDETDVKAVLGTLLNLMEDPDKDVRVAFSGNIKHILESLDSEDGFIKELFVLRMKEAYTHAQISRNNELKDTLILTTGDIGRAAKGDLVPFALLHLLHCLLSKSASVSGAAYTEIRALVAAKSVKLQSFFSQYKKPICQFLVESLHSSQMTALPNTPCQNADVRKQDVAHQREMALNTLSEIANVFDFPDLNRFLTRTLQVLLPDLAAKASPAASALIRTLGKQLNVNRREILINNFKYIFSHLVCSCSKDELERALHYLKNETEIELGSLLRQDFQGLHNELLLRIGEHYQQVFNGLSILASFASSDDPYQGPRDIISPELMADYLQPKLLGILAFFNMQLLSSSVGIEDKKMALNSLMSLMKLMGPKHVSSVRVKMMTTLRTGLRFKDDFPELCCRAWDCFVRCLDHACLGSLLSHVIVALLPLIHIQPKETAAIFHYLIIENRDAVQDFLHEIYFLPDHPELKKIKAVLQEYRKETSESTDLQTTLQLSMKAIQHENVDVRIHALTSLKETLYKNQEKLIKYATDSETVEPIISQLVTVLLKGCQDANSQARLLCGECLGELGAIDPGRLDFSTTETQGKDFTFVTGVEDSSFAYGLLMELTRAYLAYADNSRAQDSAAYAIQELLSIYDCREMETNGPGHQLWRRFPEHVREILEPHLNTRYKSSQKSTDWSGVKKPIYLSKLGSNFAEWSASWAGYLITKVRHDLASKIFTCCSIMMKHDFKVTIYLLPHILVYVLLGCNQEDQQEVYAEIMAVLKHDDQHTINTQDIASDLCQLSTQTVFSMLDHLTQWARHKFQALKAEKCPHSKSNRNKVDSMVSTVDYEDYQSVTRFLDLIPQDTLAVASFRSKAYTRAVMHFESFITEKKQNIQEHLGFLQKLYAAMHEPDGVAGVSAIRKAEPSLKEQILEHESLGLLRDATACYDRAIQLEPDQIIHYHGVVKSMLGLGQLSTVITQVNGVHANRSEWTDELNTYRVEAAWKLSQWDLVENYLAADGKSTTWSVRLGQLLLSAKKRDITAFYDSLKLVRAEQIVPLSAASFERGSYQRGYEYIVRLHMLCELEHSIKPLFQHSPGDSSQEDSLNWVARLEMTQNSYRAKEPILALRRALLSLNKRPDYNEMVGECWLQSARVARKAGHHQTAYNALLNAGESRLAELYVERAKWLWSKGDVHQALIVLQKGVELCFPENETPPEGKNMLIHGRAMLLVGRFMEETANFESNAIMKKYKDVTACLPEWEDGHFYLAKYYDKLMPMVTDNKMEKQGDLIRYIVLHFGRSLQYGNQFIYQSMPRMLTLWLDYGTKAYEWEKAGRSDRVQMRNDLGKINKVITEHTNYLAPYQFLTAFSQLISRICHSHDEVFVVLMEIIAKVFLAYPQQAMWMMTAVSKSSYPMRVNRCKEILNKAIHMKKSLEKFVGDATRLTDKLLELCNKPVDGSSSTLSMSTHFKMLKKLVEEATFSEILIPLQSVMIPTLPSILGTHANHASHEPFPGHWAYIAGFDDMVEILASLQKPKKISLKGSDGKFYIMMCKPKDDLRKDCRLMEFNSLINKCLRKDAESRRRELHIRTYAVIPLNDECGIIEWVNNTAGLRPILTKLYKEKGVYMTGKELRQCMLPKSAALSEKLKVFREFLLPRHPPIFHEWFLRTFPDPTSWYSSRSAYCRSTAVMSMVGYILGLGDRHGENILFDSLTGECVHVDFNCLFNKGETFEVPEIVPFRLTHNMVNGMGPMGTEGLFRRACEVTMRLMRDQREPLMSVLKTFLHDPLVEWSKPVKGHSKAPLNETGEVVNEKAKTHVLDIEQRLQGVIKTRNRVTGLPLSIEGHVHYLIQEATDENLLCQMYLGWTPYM
T1 sequence (Q8WXE1 whole entry partner): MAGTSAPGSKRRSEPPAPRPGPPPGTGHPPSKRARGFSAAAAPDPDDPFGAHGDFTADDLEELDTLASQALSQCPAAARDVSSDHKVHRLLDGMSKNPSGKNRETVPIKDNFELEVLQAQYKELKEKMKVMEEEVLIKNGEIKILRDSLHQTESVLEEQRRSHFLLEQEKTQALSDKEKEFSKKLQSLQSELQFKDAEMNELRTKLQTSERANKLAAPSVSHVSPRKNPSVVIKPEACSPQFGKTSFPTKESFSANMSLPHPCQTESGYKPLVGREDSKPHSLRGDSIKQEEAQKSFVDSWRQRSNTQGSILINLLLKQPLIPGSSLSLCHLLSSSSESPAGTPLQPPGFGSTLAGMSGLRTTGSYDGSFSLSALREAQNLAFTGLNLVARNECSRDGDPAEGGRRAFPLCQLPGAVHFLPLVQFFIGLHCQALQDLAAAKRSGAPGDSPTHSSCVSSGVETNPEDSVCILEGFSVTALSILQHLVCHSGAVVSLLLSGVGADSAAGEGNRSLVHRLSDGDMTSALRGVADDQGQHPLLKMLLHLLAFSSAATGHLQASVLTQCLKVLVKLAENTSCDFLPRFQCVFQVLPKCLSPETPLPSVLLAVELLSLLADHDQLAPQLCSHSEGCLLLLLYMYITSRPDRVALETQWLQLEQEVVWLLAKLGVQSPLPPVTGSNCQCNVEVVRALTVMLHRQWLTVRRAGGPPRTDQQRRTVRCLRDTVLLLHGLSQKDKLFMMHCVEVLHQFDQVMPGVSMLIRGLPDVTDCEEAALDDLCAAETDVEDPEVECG

As a reminder, the IC50 is the midpoint of a concentration-inhibition curve. As for `CC1c2cc(N3CCOC[C@H]3C)nc3c2c(nn3-c2cc[nH]n2)CCN1S(=O)(=O)C1(C)CC1` (single isomer, unassigned) [Compound 49A], the IC50 in assay [1] (read-out: ATR kinase IC50) is under 10 nM; in assay [2] (setting [3]), under 100 nM.
On to `CC1c2cc(N3CCOC[C@H]3C)nc3c2c(nn3-c2cc[nH]n2)CCN1S(=O)(=O)C1(C)CC1` (single isomer, unassigned) [Compound 49B], for which the IC50 is 10 to 100 nM in assay [1] (read-out: ATR kinase IC50) and 100 to 1000 nM in assay [2] (setting [4]).
As to `CC(C)C1(O)CCn2nc(-c3cc[nH]n3)c3nc(N4CCOC[C@H]4C)cc1c32` (single isomer, unassigned) [Compound 72A], the IC50 was 100 to 1000 nM in assay [1] (read-out: ATR kinase IC50) and over 1000 nM in assay [2] (setting [4]).
In the same order, the values of `CC(C)C1(O)CCn2nc(-c3cc[nH]n3)c3nc(N4CCOC[C@H]4C)cc1c32` (single isomer, unassigned) [Compound 72B] are 100 to 1000 nM and 100 to 1000 nM.
As for `C[C@@H]1COCCN1c1cc2c3c(nn(-c4cc[nH]n4)c3n1)CCN(S(C)(=O)=O)C2C1CC1` (single isomer, unassigned) [Compound 138A], the IC50 was under 10 nM in assay [1] (read-out: ATR kinase IC50) and 100 to 1000 nM in assay [2] (setting [3]).
For the compound `C[C@@H]1COCCN1c1cc2c3c(nn(-c4cc[nH]n4)c3n1)CCN(S(C)(=O)=O)C2C1CC1` (single isomer, unassigned) [Compound 138B], the concentration for half-maximal inhibition (IC50) is under 10 nM in assay [1] (read-out: ATR kinase IC50) and under 100 nM in assay [2] (setting [4]).
Consider `CC(C)C1c2cc(N3CCOC[C@H]3C)nc3c2c(nn3-c2cc[nH]n2)CCN1C` (single isomer, unassigned) [Compound 141A], for which the IC50 in assay [1] (read-out: ATR kinase IC50) is under 10 nM; in assay [2] (setting [3]), under 100 nM.
On to `CC(C)C1c2cc(N3CCOC[C@H]3C)nc3c2c(nn3-c2cc[nH]n2)CCN1C` (single isomer, unassigned) [Compound 141B], for which the IC50 is under 10 nM in assay [1] (read-out: ATR kinase IC50) and under 100 nM in assay [2] (setting [4]).
Regarding `C[C@@H]1COCCN1c1cc2c3c(nn(-c4cc[nH]n4)c3n1)CCN(C)C2C1CC1` (single isomer, unassigned) [Compound 142A], the IC50 in assay [1] (read-out: ATR kinase IC50) is under 10 nM; in assay [2] (setting [3]), under 100 nM.
In the case of `C[C@@H]1COCCN1c1cc2c3c(nn(-c4cc[nH]n4)c3n1)CCN(C)C2C1CC1` (single isomer, unassigned) [Compound 142B], the 50% inhibitory concentration (IC50) in assay [1] (read-out: ATR kinase IC50) was under 10 nM; in assay [2] (setting [4]), under 100 nM.
Consider `CCC1c2cc(N3CCOC[C@H]3C)nc3c2c(nn3-c2cc[nH]n2)CCN1S(C)(=O)=O` (single isomer, unassigned) [Compound 144A], for which the half-inhibitory concentration (IC50) is under 10 nM in assay [1] (read-out: ATR kinase IC50) and 100 to 1000 nM in assay [2] (setting [3]).
As for `CCC1c2cc(N3CCOC[C@H]3C)nc3c2c(nn3-c2cc[nH]n2)CCN1S(C)(=O)=O` (single isomer, unassigned) [Compound 144B], the values for the IC50 in assay [1] (read-out: ATR kinase IC50) and in assay [2] (setting [4]) were under 10 nM and under 100 nM, respectively.
Turning to `CCC1c2cc(N3CCOC[C@H]3C)nc3c2c(nn3-c2cc[nH]n2)CCN1S(=O)(=O)C1CC1` (single isomer, unassigned) [Compound 145A], the results for the concentration for half-maximal inhibition (IC50) in assay [1] (read-out: ATR kinase IC50) and in assay [2] (setting [3]) were 10 to 100 nM and 100 to 1000 nM, respectively.
As for `CCC1c2cc(N3CCOC[C@H]3C)nc3c2c(nn3-c2cc[nH]n2)CCN1S(=O)(=O)C1CC1` (single isomer, unassigned) [Compound 145B], the 50% inhibitory concentration (IC50) is under 10 nM in assay [1] (read-out: ATR kinase IC50) and 100 to 1000 nM in assay [2] (setting [4]).
Regarding `CC1c2cc(N3CCOC[C@H]3C)nc3c2c(nn3-c2cc[nH]n2)CCN1S(=O)(=O)C1CC1F` (single isomer, unassigned) [Compound 151A], the IC50 in assay [1] (read-out: ATR kinase IC50) was under 10 nM; in assay [2] (setting [3]) it was under 100 nM.
With `CC1c2cc(N3CCOC[C@H]3C)nc3c2c(nn3-c2cc[nH]n2)CCN1S(=O)(=O)C1CC1F` (single isomer, unassigned) [Compound 151B], the IC50 in assay [1] (read-out: ATR kinase IC50) was under 10 nM; in assay [2] (setting [4]), under 100 nM.
In the same order, the values of `CC1c2cc(N3CCOC[C@H]3C)nc3c2c(nn3-c2cc[nH]n2)CCN1S(=O)(=O)C1CC1F` (single isomer, unassigned) [Compound 151C] are 10 to 100 nM and 100 to 1000 nM.
As to `CC1c2cc(N3CCOC[C@H]3C)nc3c2c(nn3-c2cc[nH]n2)CCN1S(=O)(=O)C1CC1F` (single isomer, unassigned) [Compound 151D], the IC50 in assay [1] (read-out: ATR kinase IC50) and in assay [2] (setting [4]) was 100 to 1000 nM each time.
Regarding `CN=S(C)(=O)N1CCc2nn(-c3cc[nH]n3)c3nc(N4CCOC[C@H]4C)cc(c23)C1C` (single isomer, unassigned) [Compound 152A], the half-maximal inhibitory concentration (IC50) in assay [1] (read-out: ATR kinase IC50) was under 10 nM; in assay [2] (setting [3]) it was under 100 nM.
Regarding `CN=S(C)(=O)N1CCc2nn(-c3cc[nH]n3)c3nc(N4CCOC[C@H]4C)cc(c23)C1C` (single isomer, unassigned) [Compound 152B], the figures for the IC50 in assay [1] (read-out: ATR kinase IC50) and in assay [2] (setting [4]) were 10 to 100 nM and 100 to 1000 nM, respectively.
Turning to `C[C@@H]1COCCN1c1cc2c3c(nn(-c4cc[nH]n4)c3n1)CCNC2` [Compound 1, (R)-4-(2-(1H-pyrazol-3-yl)-6,7,8,9-tetrahydro-2H-1,2,3,7-tetraazabenzo[cd]azulen-4-yl)-3-methylmorpholine], the IC50 in assay [1] (ATR kinase IC50 (nM)) is 100 to 1000 nM; in assay [2] (Homo sapiens, LoVo, 120 h, read-out: LoVo IC50 (nM), LoVo cells, 2,000 cells per well, 5 days incubation, CellTiter-Glo), 100 to 1000 nM.
As to `CC(C)N1CCc2nn(-c3cc[nH]n3)c3nc(N4CCOC[C@H]4C)cc(c23)C1` [Compound 2], the IC50 in assay [1] (read-out: ATR kinase IC50) was in the range of 10 to 100 nM; in assay [2] (setting [3]) it was 100 to 1000 nM.
In the same order, the values of `C[C@@H]1COCCN1c1cc2c3c(nn(-c4cc[nH]n4)c3n1)CCN(C1CCOCC1)C2` [Compound 3, (R)-4-(2-(1H-pyrazol-3-yl)-7-(tetrahydro-2H-pyran-4-yl)-6,7,8,9-tetrahydro-2H-1,2,3,7-tetraazabenzo[cd]azulen-4-yl)-3-methylmorpholine] are 10 to 100 nM and 100 to 1000 nM.
In the same order, the values of `C[C@@H]1COCCN1c1cc2c3c(nn(-c4cc[nH]n4)c3n1)CCN(C1CCOC1)C2` (stereo partly drawn) [Compound 4, (3R)-4-(2-(1H-pyrazol-3-yl)-7-(tetrahydrofuran-3-yl)-6,7,8,9-tetrahydro-2H-1,2,3,7-tetraazabenzo[cd]azulen-4-yl)-3-methylmorpholine] are 10 to 100 nM and 100 to 1000 nM.
In the same order, the values of `CC(=O)N1CCc2nn(-c3cc[nH]n3)c3nc(N4CCOC[C@H]4C)cc(c23)C1` [Compound 5] are 10 to 100 nM and 100 to 1000 nM.
Take `C[C@@H]1COCCN1c1cc2c3c(nn(-c4cc[nH]n4)c3n1)CCN(C1CC3CCC(C1)O3)C2` (stereo partly drawn) [Compound 6, (3R)-4-(7-(8-oxabicyclo[3.2.1]octan-3-yl)-2-(1H-pyrazol-3-yl)-6,7,8,9-tetrahydro-2H-1,2,3,7-tetraazabenzo[cd]azulen-4-yl)-3-methylmorpholine]: the IC50 in assay [1] (read-out: ATR kinase IC50) and in assay [2] (setting [3]) was 100 to 1000 nM throughout.
For the compound `C[C@@H]1COCCN1c1cc2c3c(nn(-c4cc[nH]n4)c3n1)CCN(C1CC(F)(F)C1)C2` [Compound 7, (R)-4-(7-(3,3-difluorocyclobutyl)-2-(1H-pyrazol-3-yl)-6,7,8,9-tetrahydro-2H-1,2,3,7-tetraazabenzo[cd]azulen-4-yl)-3-methylmorpholine], the IC50 in assay [1] (read-out: ATR kinase IC50) was 10 to 100 nM; in assay [2] (setting [3]), 100 to 1000 nM.
In the same order, the values of `C[C@@H]1COCCN1c1cc2c3c(nn(-c4cc[nH]n4)c3n1)CCN(C1COC1)C2` [Compound 8, (R)-3-Methyl-4-(7-(oxetan-3-yl)-2-(1H-pyrazol-3-yl)-6,7,8,9-tetrahydro-2H-1,2,3,7-tetraazabenzo[cd]azulen-4-yl)morpholine] are 10 to 100 nM and 100 to 1000 nM.
In the same order, the values of `C[C@@H]1COCCN1c1cc2c3c(nn(-c4cc[nH]n4)c3n1)CCN(C(=O)C1CC(F)(F)C1)C2` [Compound 9, (R)-(3,3-difluorocyclobutyl)(4-(3-methylmorpholino)-2-(1H-pyrazol-3-yl)-2,6,8,9-tetrahydro-7H-1,2,3,7-tetraazabenzo[cd]azulene-7-yl)methanone] are 10 to 100 nM and over 1000 nM.
In the same order, the values of `C[C@@H]1COCCN1c1cc2c3c(nn(-c4cc[nH]n4)c3n1)CCN(C(=O)CC(F)(F)F)C2` [Compound 10, (R)-3,3,3-trifluoro-1-(4-(3-methylmorpholino)-2-(1H-pyrazol-3-yl)-2,6,8,9-tetrahydro-7H-1,2,3,7-tetraazabenzo[cd]azulen-7-yl)propan-1-one] are 10 to 100 nM and over 1000 nM.
On to `C[C@@H]1COCCN1c1cc2c3c(nn(-c4cc[nH]n4)c3n1)CCN(C1CC3(CC3)C1)C2` [Compound 11], for which the 50% inhibitory concentration (IC50) in assay [1] (read-out: ATR kinase IC50) fell in the range of 10 to 100 nM; in assay [2] (setting [3]) it was 100 to 1000 nM.
